Test results taken from US11214803B2, “Modulators of YAP1 expression” (Ionis Pharmaceuticals, Inc., priority 2019, dated 2022).
Strand notation (5' to 3'): a small letter for the sugar, then the base; units joined by * are phosphorothioate-linked, units joined directly phosphodiester-linked; [ ] holds rarer units or linkages, { } end groups; capitals alone tell only the bases. k = constrained ethyl (cEt); [5mC] = 5-methylcytosine; d = 2'-deoxy (DNA)

System: Yap1 mRNA
Test: Dose-dependent inhibition of human Yap1 in A-431 cells (Example 8, 10,000 cells per well, RTS4814)
Format: cell-based
Conditions: free uptake, approximately 48 hours, RTS4814; for Yap1 mRNA, % UTC: A-431 cells, 10,000 cells per well; for IC50: A-431 cells, linear regression on log/linear plot
Summary of the method: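 A-431 cells (10,000/well) dosed with modified oligonucleotides by free uptake; Yap1 mRNA measured ~48 h later with primer-probe set RTS4814, normalized to total RNA (RIBOGREEN). Values are % of untreated control; IC50 from linear regression on log/linear plot.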

Substance	Yap1 mRNA, % UTC (31.3 nM) [% UTC]	Yap1 mRNA, % UTC (125.0 nM) [% UTC]	Yap1 mRNA, % UTC (500.0 nM) [% UTC]	Yap1 mRNA, % UTC (2000.00 nM) [% UTC]	IC50 [nM]
1076327 (kG*kA*kT*dA*dA*dG*d[5mC]*dA*dA*dG*dG*dT*dT*k[5mC]*kT*k[5mC]; antisense) [compound 1076327]	73	38	17	9	100
1076330 (antisense kG*kA*kA*dT*dT*dA*dT*dA*d[5mC]*dT*dG*dG*d[5mC]*kT*kA*k[5mC]) [compound 1076330]	57	31	9	4	40
1075138 (kA*kA*kT*dA*dA*dT*dA*dG*dA*dT*dA*d[5mC]*dT*kG*k[5mC]*k[5mC]; antisense) [compound 1075138]	66	27	8	5	50
1075048 (antisense kG*kT*kA*dA*dA*dA*dT*dT*dA*dG*dA*d[5mC]*dT*k[5mC]*k[5mC]*k[5mC]) [compound 1075048]	76	42	13	5	100
1074628 (DNA kG*k[5mC]*k[5mC]*dT*dG*dT*dT*dA*dT*dG*dA*dA*d[5mC]*k[5mC]*k[5mC]*kT) [compound 1074628]	29	13	7	6	< 20
1074723 (antisense kG*kG*kT*dA*dA*dA*dG*dG*dA*dA*dG*dA*dT*k[5mC]*kT*k[5mC]) [compound 1074723]	56	24	11	8	< 20
1074850 (kT*kT*kG*dT*dT*dA*dT*dG*dA*dT*dA*dG*dG*k[5mC]*kA*k[5mC]; antisense) [compound 1074850]	63	20	7	5	40
1075876 (antisense kG*kT*kA*dT*dT*dT*dA*dT*dG*dA*dT*dG*dA*kT*kT*k[5mC]) [compound 1075876]	47	20	7	5	< 20
1074443 (kT*k[5mC]*kA*dG*dA*d[5mC]*d[5mC]*dA*dG*dT*dA*dA*dA*kT*k[5mC]*kA; antisense) [compound 1074443]	69	35	14	8	100
1074565 (DNA kA*k[5mC]*kT*dG*dA*dA*dT*dT*d[5mC]*d[5mC]*dA*dA*dT*k[5mC]*kG*kA; antisense) [compound 1074565]	47	20	9	6	< 20
1074251 (antisense kT*k[5mC]*kT*dG*dA*dT*d[5mC]*dG*dA*dT*dG*dT*dG*kA*kT*kT) [compound 1074251]	73	33	16	10	100
1076456 (k[5mC]*kT*kT*dT*dA*dA*dA*dG*dT*dG*dT*dA*dT*kG*kT*k[5mC]) [compound 1076456]	43	14	5	3	< 20
1075115 (kG*kT*kA*dT*dA*dG*d[5mC]*d[5mC]*dT*dT*dA*dT*dT*k[5mC]*kT*kT; antisense) [compound 1075115]	57	41	17	9	100
1076064 (kT*kA*kT*dG*dA*dA*d[5mC]*dA*dA*dT*dG*dT*dA*k[5mC]*kT*k[5mC]; antisense) [compound 1076064]	68	26	10	5	100
1074274 (antisense kG*kT*kT*d[5mC]*dT*dT*dA*dT*dG*dG*dT*dT*dT*kA*kT*kA) [compound 1074274]	42	14	7	5	< 20
1074407 (kT*kA*kA*dA*dG*dT*dA*dT*d[5mC]*dT*dT*dG*d[5mC]*kT*kG*kG; antisense) [compound 1074407]	55	27	13	8	< 20
1075813 (kA*k[5mC]*kT*dA*dA*dT*dA*dT*dG*d[5mC]*dA*dA*d[5mC]*kT*k[5mC]*kT; antisense) [compound 1075813]	57	31	11	5	40
1076070 (kA*kT*kT*dA*dG*dT*dA*dA*dT*dG*d[5mC]*dA*d[5mC]*kA*kG*kG; antisense) [compound 1076070]	55	17	8	6	< 20
1074593 (DNA kA*kG*kG*dA*dG*d[5mC]*dA*dA*dG*dT*d[5mC]*dT*dT*kG*kT*kA) [compound 1074593]	50	20	9	8	< 20
1074409 (kG*kG*kA*dT*dT*dA*dA*dA*dG*dT*dA*dT*d[5mC]*kT*kT*kG; antisense) [compound 1074409]	60	30	13	7	40
1076448 (k[5mC]*kT*kT*dA*dT*dA*dA*dT*dG*d[5mC]*dA*dA*dT*k[5mC]*k[5mC]*kT; antisense) [compound 1076448]	61	19	4	3	< 20
1074851 (kA*kT*kT*dG*dT*dT*dA*dT*dG*dA*dT*dA*dG*kG*k[5mC]*kA; antisense) [compound 1074851]	51	19	9	7	< 20
